The results in this text go back to ChEMBL document CHEMBL5154863, “Design and synthesis of quinolinium-based derivatives targeting FtsZ for antibacterial evaluation and mechanistic study” (Eur J Med Chem, 2022).

Each structure is given as a SMILES string. Where only a bound is given, the exact number is not on record here.

Holding throughout (format): functional
What all share (details): time 20-24 hrs

Experiment [1] relates to Staphylococcus aureus. As to the kind of experiment: Antibacterial activity against methicillin-resistant Staphylococcus aureus ATCC 33592 assessed as inhibition of bacterial growth incubated for 20 to 24 hrs by broth micro dilution method.
A further experiment has as its system Bacillus subtilis. Description: Antibacterial activity against Bacillus subtilis CMCC (B) 63501 assessed as inhibition of bacterial growth incubated for 20 to 24 hrs by broth micro dilution method.
The test system of a further experiment is Klebsiella pneumoniae. As to the kind of experiment: Antibacterial activity against NDM-1 expressing Klebsiella pneumoniae ATCC BAA 2470 assessed as inhibition of bacterial growth incubated for 20 to 24 hrs by broth micro dilution method.
In a further experiment the test system is Acinetobacter baumannii. Description: Antibacterial activity against multi-drug resistant Acinetobacter baumannii ATCC 19606 assessed as inhibition of bacterial growth incubated for 20 to 24 hrs by broth micro dilution method.
A further experiment concerns Pseudomonas aeruginosa. Description: Antibacterial activity against […] Pseudomonas aeruginosa ATCC 27853 assessed as inhibition of bacterial growth incubated for 20 to 24 hrs by broth micro dilution method.
The test system of experiment [2] is Enterococcus faecium. As to the kind of experiment: Antibacterial activity against Enterococcus faecium ATCC 49624 assessed as inhibition of bacterial growth incubated for 20 to 24 hrs by broth micro dilution method.
For experiment [3], the system named is Escherichia coli. As to the kind of experiment: Antibacterial activity against NDM-1 expressing Escherichia coli ATCC BAA2469 assessed as inhibition of bacterial growth incubated for 20 to 24 hrs by broth micro dilution method.
In experiment [4] the test system is Staphylococcus epidermidis. Description: Antibacterial activity against Staphylococcus epidermidis ATCC 12228 assessed as inhibition of bacterial growth incubated for 20 to 24 hrs by broth micro dilution method.
In experiment [5] the test system is Enterococcus faecium. Description: Antibacterial activity against vancomycin-resistant Enterococcus faecium clinical isolate assessed as inhibition of bacterial growth incubated for 20 to 24 hrs by broth micro dilution method.
The test system of experiment [6] is Enterococcus faecium. As to the kind of experiment: Antibacterial activity against vancomycin resistant Enterococcus faecium ATCC 700221 assessed as inhibition of bacterial growth incubated for 20 to 24 hrs by broth micro dilution method.
The subject of a further experiment is Enterococcus faecalis. As to the kind of experiment: Antibacterial activity against Enterococcus faecalis ATCC 29212 assessed as inhibition of bacterial growth incubated for 20 to 24 hrs by broth micro dilution method.
Experiment [7] has as its system Staphylococcus aureus. As to the kind of experiment: Antibacterial activity against Staphylococcus aureus ATCC 29213 assessed as inhibition of bacterial growth incubated for 20 to 24 hrs by broth micro dilution method.
Experiment [8] has as its system Staphylococcus aureus. As to the kind of experiment: Antibacterial activity against methicillin-resistant Staphylococcus aureus ATCC 43300 assessed as inhibition of bacterial growth incubated for 20 to 24 hrs by broth micro dilution method.
Experiment [9] concerns Escherichia coli. As to the kind of experiment: Antibacterial activity against Escherichia coli ATCC 8739 assessed as inhibition of bacterial growth incubated for 20 to 24 hrs by broth micro dilution method.
Experiment [10] has as its system Staphylococcus aureus. As to the kind of experiment: Antibacterial activity against vancomycin-intermediate Staphylococcus aureus Mu50 assessed as inhibition of bacterial growth incubated for 20 to 24 hrs by broth micro dilution method.
The test system of experiment [11] is Staphylococcus aureus. Description: Antibacterial activity against methicillin-resistant Staphylococcus aureus ATCC BAA-1720 assessed as inhibition of bacterial growth incubated for 20 to 24 hrs by broth micro dilution method.
The test system of experiment [12] is Escherichia coli. As to the kind of experiment: Antibacterial activity against Escherichia coli ATCC 25922 assessed as inhibition of bacterial growth incubated for 20 to 24 hrs by broth micro dilution method.

Usually MIC stands for the lowest concentration found to suppress growth. As for `CN(C)c1ccc(/C=C/c2cc(NCCCc3ccccc3)[n+](C)c3ccccc23)cc1.[I-]`, the MIC was 4 µg/mL in the experiment on Staphylococcus aureus [1]; 2 µg/mL with Bacillus subtilis; greater than 64 µg/mL in the experiment on Klebsiella pneumoniae; greater than 64 µg/mL in the experiment with Acinetobacter baumannii; greater than 64 µg/mL with Pseudomonas aeruginosa; 4 µg/mL with Enterococcus faecium [2]. For the same compound, the MIC in the experiment on Escherichia coli [3] is greater than 64 µg/mL; in experiment [4] it was 4 µg/mL; in the experiment on Enterococcus faecium [5] it was 4 µg/mL; in the experiment on Enterococcus faecium [6] it was 4 µg/mL; in the experiment on Enterococcus faecalis, 4 µg/mL; in the experiment with Staphylococcus aureus [7] it was 4 µg/mL. The MIC with Staphylococcus aureus [8] is 4 µg/mL; with Escherichia coli [9], greater than 64 µg/mL; with Staphylococcus aureus [10], 4 µg/mL; with Staphylococcus aureus [11], 4 µg/mL; in the experiment on Escherichia coli [12] it was greater than 64 µg/mL.
Regarding `CCCCCNc1cc(/C=C/c2ccc(N(C)C)cc2)c2ccccc2[n+]1C.[I-]`, the MIC is 8 µg/mL in the experiment on Staphylococcus aureus [1]; 8 µg/mL in the experiment on Bacillus subtilis; greater than 64 µg/mL in the experiment with Klebsiella pneumoniae; greater than 64 µg/mL in the experiment on Acinetobacter baumannii; greater than 64 µg/mL in the experiment on Pseudomonas aeruginosa; 8 µg/mL with Enterococcus faecium [2]. Further, the MIC is greater than 64 µg/mL with Escherichia coli [3]; 8 µg/mL in experiment [4]; 8 µg/mL in the experiment with Enterococcus faecium [5]; 8 µg/mL with Enterococcus faecium [6]; 16 µg/mL with Enterococcus faecalis; 8 µg/mL in the experiment with Staphylococcus aureus [7]. The minimal inhibitory concentration (MIC) with Staphylococcus aureus [8] was 8 µg/mL; in the experiment on Escherichia coli [9], greater than 64 µg/mL; with Staphylococcus aureus [10], 8 µg/mL; in the experiment on Staphylococcus aureus [11] it was 8 µg/mL; in the experiment on Escherichia coli [12], greater than 64 µg/mL.
Take `CN(C)c1ccc(/C=C/c2cc(N3CCCC3)[n+](C)c3ccccc23)cc1.[I-]`: the MIC with Staphylococcus aureus [1] is 16 µg/mL; with Bacillus subtilis, 16 µg/mL; with Klebsiella pneumoniae, greater than 64 µg/mL; in the experiment on Acinetobacter baumannii, greater than 64 µg/mL; in the experiment on Pseudomonas aeruginosa, greater than 64 µg/mL; in the experiment on Enterococcus faecium [2] it was 16 µg/mL. The MIC in the experiment on Escherichia coli [3] worked out at 64 µg/mL; in [4] it was 2 µg/mL; in the experiment on Enterococcus faecium [5] it was 16 µg/mL; in the experiment with Enterococcus faecium [6] it was 8 µg/mL; in the experiment on Enterococcus faecalis, 64 µg/mL; in the experiment on Staphylococcus aureus [7], 4 µg/mL. Further, the minimal inhibitory concentration (MIC) amounted to 16 µg/mL in the experiment on Staphylococcus aureus [8]; 32 µg/mL in the experiment on Escherichia coli [9]; 8 µg/mL in the experiment with Staphylococcus aureus [10]; 16 µg/mL in the experiment with Staphylococcus aureus [11]; 16 µg/mL in the experiment on Escherichia coli [12].
As to `CCCCNc1cc(/C=C/c2ccc(N(C)C)cc2)c2ccccc2[n+]1C.[I-]`, the MIC is 32 µg/mL in the experiment with Staphylococcus aureus [1]; 8 µg/mL in the experiment on Bacillus subtilis; greater than 64 µg/mL in the experiment with Klebsiella pneumoniae; greater than 64 µg/mL in the experiment with Acinetobacter baumannii; greater than 64 µg/mL in the experiment on Pseudomonas aeruginosa; 16 µg/mL with Enterococcus faecium [2]. In addition, the minimal inhibitory concentration (MIC) in the experiment with Escherichia coli [3] was greater than 64 µg/mL; in experiment [4], 16 µg/mL; in the experiment on Enterococcus faecium [5], 8 µg/mL; in the experiment with Enterococcus faecium [6] it was 8 µg/mL; in the experiment on Enterococcus faecalis, 32 µg/mL; in the experiment on Staphylococcus aureus [7], 32 µg/mL. Further, the MIC with Staphylococcus aureus [8] is 16 µg/mL; in the experiment on Escherichia coli [9] it was greater than 64 µg/mL; in the experiment with Staphylococcus aureus [10], 16 µg/mL; in the experiment with Staphylococcus aureus [11], 16 µg/mL; in the experiment with Escherichia coli [12], greater than 64 µg/mL.
